How the values were obtained:
[1] = test system: CETP activity; experiment: In vivo inhibition of CETP activity in hamsters
[2] = target: T1, CETP activity (Macaca fascicularis, UniProt P47896); experiment: In vivo inhibition of CETP activity in cynomolgus monkeys
T1 construct: from tissue; host or cells: cynomolgus monkey, in vivo (endogenous circulating CETP)
T1 sequence (P47896 18-493): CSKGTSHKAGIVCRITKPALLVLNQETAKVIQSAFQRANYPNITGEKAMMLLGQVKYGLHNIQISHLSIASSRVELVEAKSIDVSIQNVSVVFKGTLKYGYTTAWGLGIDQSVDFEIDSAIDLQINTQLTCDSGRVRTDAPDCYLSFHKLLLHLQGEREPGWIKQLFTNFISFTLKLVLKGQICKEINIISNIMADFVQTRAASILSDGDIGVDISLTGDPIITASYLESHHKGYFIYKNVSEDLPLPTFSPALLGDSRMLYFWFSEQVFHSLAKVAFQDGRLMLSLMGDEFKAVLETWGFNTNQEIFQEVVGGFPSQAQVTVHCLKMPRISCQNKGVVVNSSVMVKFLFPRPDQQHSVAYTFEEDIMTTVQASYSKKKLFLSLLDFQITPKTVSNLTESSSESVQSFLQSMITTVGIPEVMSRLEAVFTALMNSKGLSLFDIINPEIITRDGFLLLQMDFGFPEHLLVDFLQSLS

[3] = Pharmacokinetic properties and excretion in the cynomolgus monkey; type: in vivo
Experimental: The pharmacokinetic (PK) properties of N-(4-tert-Butyl-benzyl)-3-chloro-N-[2-(4-chloro-3-ethyl-phenyl)-ethyl]-2-fluoro-5-trifluoromethyl-benz-amide were assessed in the rat and cynomolgus monkey. […] The very high protein binding, in combination with moderate membrane permeability, is the likely cause for the low volume of distribution observed in vivo.
In the rat and cynomolgus monkey, the major excretion route was the bile and feces, independent of the route of administration (approximately 92% of administered dose eliminated). Less than 1% of the dose was eliminated renally.

[4] = test system: HDL-C, LDL-C, apoA-I, apoB-100; experiment: Plasma lipids and apolipoproteins after multiple doses for 14 days in clinical study; type: in vivo, human
Experimental: The CETP inhibition achieved with multiple doses of up to 420 mg N-(4-tert-Butyl-benzyl)-3-chloro-N-[2-(4-chloro-3-ethyl-phenyl)-ethyl]-2-fluoro-5-trifluoromethyl-benz-amide for 14 days in healthy subjects was associated with increase of HDL-C and apolipoprotein A-I (apoA-I) and decrease in LDL-C and apolipoprotein B-100 (apoB-100). […] The maximum mean increase from baseline ranged from 48% to 55% with the 180 and 420 mg doses, respectively, and was maintained over the entire dosing interval of 24 hours. For LDL-C, plasma levels decreased after 14 days of treatment with all N-(4-tert-Butyl-benzyl)-3-chloro-N-[2-(4-chloro-3-ethyl-phenyl)-ethyl]-2-fluoro-5-trifluoromethyl-benz-amide doses from 10 to 420 mg.

[5] = test system: scavenger receptor SRB1; experiment: Cholesterol efflux from cells; type: cell-based; settings: via scavenger receptor SRB1
Text: N-(4-tert-Butyl-benzyl)-3-chloro-N-[2-(4-chloro-3-ethyl-phenyl)-ethyl]-2-fluoro-5-trifluoromethyl-benz-amide is a potent inhibitor of cholesteryl ester transfer protein (CETP), which was originally developed for the treatment of dyslipidemia and prevention of cardiovascular events. The clinical development was discontinued in 2009 due to strategic portfolio decision; the discontinuation was not due to the safety profile of the product. […] Liquid-filled hard capsules in the dose strength of 60 mg have been developed.

[6] = test system: Human umbilical vein endothelial cells (HUVEC); experiment: alamarBlue viability assay in HUVECs; type: cell-based; settings: 72 h
Experimental: Human umbilical vein endothelial cells (HUVEC), the growth medium EGM and the basal medium EBM was obtained from Lonza. Additional FCS for the starving medium was used form Invitrogen.
The viability assay with alamarBlue® from Invitrogen was done in 96 well gelatin coated plates from BD.
The tested compounds were dissolved in DMSO at a stock concentration of 10 mM.
VEGF-A165 was obtained from R&D Systems® and has been dissolved at a stock concentration of 100 ug/ml in PBS.
HUVECs cells were maintained in Endothial growth medium (EGM) until Passage 5. For the viability assay HUVECs have been seeded in EBM with 0.5% FCS on gelatin coated 96 well plates at a cell density of 11.000 cells/well. Outer wells were left free and have been filled with medium afterwards. Cells were incubated overnight in a cell culture incubator at 37° C. with 5% CO2. Compounds and VEGF have been diluted in EBM/0.5% FCS to a 20× working concentration. 5 ul of the 20× pre-dilution have been added to the cells. HUVECs which have to be intended to grow under hypoxia conditions have been transferred to a cell culture incubator with 1% O2, 5% CO2 and 37° C. HUVECs grown under normoxia conditions were incubated in a normal cell culture incubator. After 72 h, 11 ul of alamarBlue® have been added to each well of the cells subsequently incubated for 4 h in the cell culture incubator. The absorbance has been detected at 570 nm with a reference wavelength of 600 nm.

[7] = multiple doses of up to 420 mg for 14 days, healthy subjects

CCc1cc(CCN(Cc2ccc(C(C)(C)C)cc2)C(=O)c2cc(C(F)(F)F)cc(Cl)c2F)ccc1Cl [Compound 1, N-(4-tert-Butyl-benzyl)-3-chloro-N-[2-(4-chloro-3-ethyl-phenyl)-ethyl]-2-fluoro-5-trifluoromethyl-benzamide]
inhibition of CETP activity in vivo [1]: inhibition of CETP activity has been demonstrated
inhibition of CETP activity in vivo [2]: inhibition of CETP activity has been demonstrated
absolute oral bioavailability [3]: relatively low
dose eliminated renally [3]: Less than 1%
gastrointestinal absorption [3]: limited
terminal half-life [3]: medium to long
total systemic clearance [3]: low
volume of distribution [3]: low
plasma protein binding ([3]; across species): very high
administered dose eliminated via bile and feces ([3]; independent of the route of administration): approximately 92%
mean LDL-C decrease over the entire dosing interval ([4]; 180 mg dose and higher doses, 14 days): at least 30%
HDL-C maximum mean increase from baseline ([4]; 180 mg, 14 days): 48%
HDL-C maximum mean increase from baseline ([4]; 420 mg, 14 days): 55%
apolipoprotein A-I (apoA-I) [4, 7]: increase
apolipoprotein B-100 (apoB-100) [4, 7]: decrease
cholesterol efflux from cells [5]: efflux cholesterol from cells via scavenger receptor SRB1
alamarBlue assay OD 570 nm-600 nm ([6]; 4.1 nM, hypoxia): −0.0059
alamarBlue assay OD 570 nm-600 nm ([6]; 4.1 nM, normoxia): 0.0073
alamarBlue assay OD 570 nm-600 nm ([6]; 10.2 nM, hypoxia): 0.0152
alamarBlue assay OD 570 nm-600 nm ([6]; 10.2 nM, normoxia): 0.0075
alamarBlue assay OD 570 nm-600 nm ([6]; 25.6 nM, hypoxia): 0.0144
alamarBlue assay OD 570 nm-600 nm ([6]; 25.6 nM, normoxia): 0.0056
alamarBlue assay OD 570 nm-600 nm ([6]; 64 nM, hypoxia): 0.0118
alamarBlue assay OD 570 nm-600 nm ([6]; 64 nM, normoxia): 0.0062
alamarBlue assay OD 570 nm-600 nm ([6]; 160 nM, hypoxia): 0.0233
alamarBlue assay OD 570 nm-600 nm ([6]; 160 nM, normoxia): 0.0127
alamarBlue assay OD 570 nm-600 nm ([6]; 400 nM, hypoxia): 0.0326
alamarBlue assay OD 570 nm-600 nm ([6]; 400 nM, normoxia): 0.0223
alamarBlue assay OD 570 nm-600 nm ([6]; 1000 nM, hypoxia): 0.0967
alamarBlue assay OD 570 nm-600 nm ([6]; 1000 nM, normoxia): 0.0600
alamarBlue assay OD 570 nm-600 nm ([6]; 2500 nM, hypoxia): 0.1488
alamarBlue assay OD 570 nm-600 nm ([6]; 2500 nM, normoxia): 0.1512
effect on viability of HUVECs ([6]; hypoxia): induced a strong cell survival
effect on viability of HUVECs ([6]; normoxia): positive effect of viability

From patent US20170035708A1, “USE OF N-(4-TERT-BUTYLBENZYL)-3-CHLORO-N-[2-(4-CHLORO-3-ETHYL-PHENYL)-ETHYL]-2-FLUORO-5-TRIFLUOROMETHYL-BENZAMIDE FOR THE TREATMENT OF EYE DISEASES” (Hoffmann-La Roche Inc., priority 2013, published 2017)
